Results on eight compounds are retold here after US5516789A, “Lipoxygenase and cyclooxygenase inhibiting compounds” (Abbott Laboratories, priority 1995, dated 1996).

Assay [1] deals with LTB4 formation in human whole blood. The assay is described as follows: Calcium ionophore (A23187)-induced LTB4 biosynthesis in human whole blood. In kind it is cell-based. As to conditions: human heparinized whole blood; 15 min preincubation at 37° C.; A23187 50.0 μM, 30 min; read-out: IC50, in vitro inhibitory potency against stimulated LTB4 formation in human whole blood. As to the method:
Inhibition of leukotriene biosynthesis was evaluated in an assay, involving calcium ionophore-induced LTB4 biosynthesis in human whole blood. Human heparinized whole blood was preincubated with test compounds or vehicle for 15 min at 37° C. followed by calcium ionophore A23187 challenge (final concentration of 50.0 μM) and the reaction terminated after 30 min by adding two volumes of methanol. The methanol extract was analyzed for LTB4 using a commercially available immunoassay.

Assay [2] has as its system biosynthesis of leukotrienes. The assay is described as follows: Rat peritoneal anaphylaxis model, inhibition of leukotriene biosynthesis in vivo after oral administration. As to conditions: oral gavage one hour prior to antigen challenge, @ 15 mg/kg. As to the method: Inhibition of the biosynthesis of leukotrienes in vivo after oral administration of compound was determined using a rat peritoneal anaphylaxis model similar to that described by Young and coworkers (Young, P. R.; Bell, R. L.; Lanai, C.; Summers, J. B.; Brooks, D. W.; Carter, G. W. (1991): Inhibition of leukotriene biosynthesis in the rat peritoneal cavity. Eur. J. Pharmacol 1991, 205, 259-266). In this model rats were injected intraperitoneally (ip) with rabbit antibody to bovine serum albumin (BSA) and three hours later injected ip with BSA to induce an antigen-antibody response. Rats were sacrificed 15 minutes after this challenge and the peritoneal fluids were collected and analyzed for leukotriene levels. Test compounds were administered by gavage one hour prior to the antigen challenge. To measure immunoreactive leukotriene levels in the various lavage fluids, the samples were diluted 1:3 (v/v) with the EIA buffer containing 100 mM phosphate, 1.5 mM sodium azide, 400 mM sodium chloride, 0.1 mM sodium EDTA and 0.1% BSA, pH 7.4. Methanol, at a final concentration of 22%, was included in the assay standards to compensate for the amount in the biological samples. EIA reagents for cysteinyl leukotrienes determination were purchased from, Cayman Chemical Co., Ann Arbor, Mich. The LTE4 tracer was prepared in-house. The immunoassays for LTE4 were then conducted as recommended by the manufacturer with the exception that volumes were adjusted to accommodate automation using a Cetus Propette (Cetus Corp., San Francisco, Calif.). The EIA was conducted in 96 well microtiter plates (Nunc Roskilde, Denmark) and optical density measured using a microplate reader (Vmax, Molecular Devices Corp., Menlo Park, Calif.). Percent inhibition values were determined by comparing the treatment group to the mean of the control group.

The subject of assay [3] is biosynthesis of leukotrienes. The assay is described as follows: Rat pleural inflammation model (A23187), inhibition of leukotriene biosynthesis in vivo. As to conditions: oral dose of 10 mg/kg. As to the method:
(§1) Pleural inflammation was induced in male rats following the method of Rao et. al., Life Sci, 1993, 53, 52. Animals were dosed with experimental compounds in 0.2% HPMC one hour prior to the intrapleural injection of the calcium ionophore, A23187. The rats were lightly anesthetized with Penthrane (Abbott Laboratories) and injected intrapleurally with 0.5 ml of 2% ethanol in injectable saline (Abbott Laboratories) containing 20 μg of A23187 (Cal BioChem-Novabiochem). Thirty minutes later the animals were euthanized and the pleural cavities lavaged with ice cold saline. The lavage fluid was then added to ice cold methanol (final methanol concentration 30%) to lyse cells and precipitate protein.
(§2) Cyclooxygenase activity of whole blood was determined by analysis of these samples for TXB2 by EIA (Advanced Magnetics, Cambridge, Mass.).

The subject of the next assay is TXB2. The assay is described as follows: Dog ex vivo A23187-stimulated blood after oral dosing, inhibition of TXB2. In kind it is in vivo. To be noted: beagle dog, oral dose of 2 mg/kg, 8 hours after dosing; blood incubated with 50 μM A23187. The text has this:
(§3) Inhibition of both leukotriene formation and prostaglandin formation was also shown in the dog. This was done using the method described by Carter et al. (Carter, G. W., Young, P. R., Albert, D. H., Bouska, J., Dyer, R., Bell, R. L., Summers, J. B. and Brooks, D. W.: J. Pharmacol. Exp. Ther. 256: 929-937, 1991.). Compound was suspended in 0.2% methylcellulose with a Potter-Elvehjem homogenizer equipped with a Teflon-coated pestle and administered orally to beagle dogs (Marshall Farms, North Rose, N.Y.) All animals were fasted overnight before dosing but allowed water ad libitum. Heparinized blood samples were obtained before and at various times after compound administration. Aliquots of blood were incubated at 37° with 50 μM with calcium ionophore, A23187. After 30 minutes, the blood was placed in an ice bath and analyzed for LTB4 and TXB2 as described above.

Assay [4] has as its system biosynthesis of prostaglandins. The assay is described as follows: Rat pleural inflammation model (A23187), inhibition of prostaglandin biosynthesis in vivo. To be noted: oral dose of 10 mg/kg, TXB2 by EIA. As to the method: as §1, §2
In another assay the test system is LTB4. The assay is described as follows: Dog ex vivo A23187-stimulated blood after oral dosing, inhibition of LTB4. In kind it is in vivo. As to conditions: beagle dog, oral dose of 2 mg/kg, 8 hours after dosing; blood incubated with 50 μM A23187.
From the text: as §3

pIC50: −log10 of the molar value.

One may read the pIC50 as −log10 of the IC50, conventionally taken in molar units. As for `CC(=O)Oc1ccccc1C(=O)ON(C(N)=O)C(C)C#Cc1ccc(Oc2ccc(F)cc2)o1` (centres unmarked) [Example 37, N-[2-(acetoxybenzoyl)oxy]-N-[3-(5-(4-fluorophenoxy)fur-2-yl)-1-methyl-2-propynyl]urea], the negative logarithm of the IC50 (pIC50) in assay [1] is 6.80.

For the compound `COc1ccc2cc([C@H](C)C(=O)ON(C(N)=O)C(C)C#Cc3ccc(Oc4ccc(F)cc4)o3)ccc2c1` (stereo partly drawn) [Example 18, N-[(S)-2-(6-methoxynaphth-2-yl)propionyloxy]-N-[3-(5-(4-fluorophenoxy)fur-2-yl)-1-methyl-2-propynyl]urea], the pIC50 in assay [1] was 5.89. Moreover, the “% Inhibition (in vivo, leukotriene biosynthesis)” value (shortened to “% Inhibition”) in assay [2] came out at 40%.

`CC(C)Cc1ccc(C(C)C(=O)ON(C(N)=O)C(C)c2ccoc2)cc1` (centres unmarked) [Example 20, N-[2-(4-(2-methylpropyl)phenyl)propionyloxy]-N-[1-(fur-3-yl)ethyl]urea]: the negative-log IC50 (pIC50) in assay [1] is 5.00. Further, the “% Inhibition” value in assay [2] is given as 43%.

Regarding `COc1ccc2cc([C@H](C)C(=O)ON(C(N)=O)[C@H](C)C#Cc3ccc(Cc4ccc(F)cc4)s3)ccc2c1` [Example 21, N-[(S)-2-(6-methoxynaphth-2-yl)propionyloxy]-N-[3-(5-(4-fluorophenylmethyl)thien-2-yl)-(R)-1-methyl-2-propynyl]urea], the “inhibition of the biosynthesis of leukotrienes” value in assay [3] came out at 71%. Besides, the “inhibition of TXB2” value with TXB2 turned out to be 47%. Moreover, in assay [4], the “inhibition of the biosynthesis of prostaglandins” value worked out at 68%. Also, the “inhibition of LTB4” value with LTB4 is reported as 54%.

For `CC(C)Cc1ccc(C(C)C(=O)ON(C(N)=O)C(C)C#Cc2ccc(Oc3ccc(F)cc3)o2)cc1` (centres unmarked) [Example 19, N-[2-(4-(2-methylpropyl)phenyl)propionyloxy]-N-[3-(5-(4-fluorophenoxy)fur-2-yl)-1-methyl-2-propynyl]urea], in assay [1], the pIC50 is 5.92. The “% Inhibition” value in assay [2] is listed as 41%.

Turning to `CC(C)Cc1ccc(C(C)C(=O)ON(C(N)=O)C(C)c2cc3ccccc3s2)cc1` (centres unmarked) [Example 3, N-[2-(4-(2-methylpropyl)phenyl)propionyloxy]-N -[1-(benzo[b]thien-2-yl)ethyl]urea], in assay [1], the pIC50 is 5.24.

For the compound `COc1ccc2cc([C@H](C)C(=O)ON(C(N)=O)C(C)c3ccoc3)ccc2c1` (stereo partly drawn) [Example 1, N-[(S)-2-(6-methoxynaphth-2-yl)propionyloxy]-N-[1-(fur-3-yl)ethyl]urea], the negative-log IC50 (pIC50) in assay [1] was 5.40.

Turning to `COc1ccc2c(c1)c(CC(=O)ON(C(N)=O)C(C)c1cc3ccccc3s1)c(C)n2C(=O)c1ccc(Cl)cc1` (centres unmarked) [Example 4, N-[2-(N-(4-chlorobenzoyl)-5-methoxy-2-methyl-[1H]-indol-3-yl)acetoxy]-N-[1-(benzo[b]thien-2-yl)ethyl] urea], in assay [1], the pIC50 is 5.74.
